Data taken from patent US20240025862A1, “SUBSTITUTED N-PHENYLURACILS AND SALTS THEREOF, AND USE THEREOF AS HERBICIDAL ACTIVE SUBSTANCES” (Bayer Aktiengesellschaft, priority 2020, published 2024).

Tests used:
Format in all cases: in vivo
[1] = test system: Triticum aestivum (TRZAS); assay: Post-emergence crop plant compatibility, greenhouse pot test; conditions: vs untreated controls
Summary of the method: (§1)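 Values are visual % damage versus untreated controls (100% = plants died) about 3 weeks after treatment. Plants in sandy loam were sprayed at the one-leaf stage, 2–3 weeks after sowing, with aqueous WP/EC preparations plus 0.5% additive at 600 l/ha; a/b/c mark different dose levels.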

Zea mays (ZEAMX) = assay: as above; conditions: 1.25 g/ha, vs untreated controls
Summary of the method: as §1

Oryza sativa (ORYSA) = assay: Post-emergence crop plant compatibility, greenhouse pot test (also comparative test C); conditions: vs untreated controls
Summary of the method: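 Visual damage versus untreated plants (0% = like control, 100% = plants died) was scored about 3 weeks after a post-emergence spray in greenhouse pots. Treatment: one-leaf stage, WP or EC in water at 600 l/ha with 0.5% additive; a/b/c mark different dosages on the same crop.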

[2] = test system: Echinochloa crus-galli (ECHCG); assay: Post-emergence herbicidal action, greenhouse pot test (also comparative test C)
Summary of the method: (§2)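 Green parts of one-leaf-stage plants are sprayed at 600 l/ha with formulated compound plus 0.5% additive, then kept under optimum greenhouse conditions for about 3 weeks. Damage is scored visually, where 100% means dead plants and 0% means no difference from controls.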

Setaria viridis (SETVI) = assay: as above
Summary of the method: as §2

[3] = test system: Alopecurus myosuroides (ALOMY); assay: as above; conditions: rated visually after about 3 weeks vs untreated controls, 100% = plants have died
Summary of the method: as §2

[4] = test system: Matricaria inodora (MATIN); assay: as above
Summary of the method: as §2

Viola tricolor (VIOTR) = assay: Post-emergence herbicidal action, greenhouse pot test
Summary of the method: (§3)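 Activity was scored by eye about 3 weeks after treatment against untreated plants, where 100% means dead plants and 0% means no difference. Plants at the one-leaf stage received a foliar spray of WP or EC formulations in water plus 0.5% additive (600 l/ha, up to 20 g/ha). Plants were grown in sandy loam pots in a greenhouse for 2–3 weeks before spraying.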

Veronica persica (VERPE) = assay: as above
Summary of the method: as §3

Avena fatua (AVEFA) = assay: as above; conditions: 20 g/ha, rated visually after about 3 weeks vs untreated controls, 100% = plants have died
Summary of the method: as §3

[5] = test system: Pharbitis purpurea (PHBPU); assay: as above
Summary of the method: as §3

[6] = test system: Amaranthus retroflexus (AMARE); assay: as above; conditions: rated visually after about 3 weeks vs untreated controls, 100% = plants have died
Summary of the method: as §3

[7] = test system: Abutilon theophrasti (ABUTH); assay: as above; conditions: rated visually after about 3 weeks vs untreated controls, 100% = plants have died
Summary of the method: as §3

[8] = test system: Polygonum convolvulus (POLCO); assay: as above
Summary of the method: as §3

COCC(C)OC(=O)COc1ccccc1Oc1cc(-n2c(=O)cc(C(F)(F)F)n(C)c2=O)c(F)cc1Cl (stereo not shown) [I.7-94, 1-Methoxypropan-2-yl (2-{2-chloro-4-fluoro-5-[3-methyl-2,6-dioxo-4-(trifluoromethyl)-3,6-dihydropyrimidin-1(2H)-yl]phenoxy}phenoxy)acetate]
Post-emergence action against TRZAS (crop plant compatibility) ([1]; 1.25 g/ha): 20% | Post-emergence action against ZEAMX (crop plant compatibility) (Zea mays (ZEAMX)): 10% | Post-emergence action against ORYSA (crop plant compatibility) (Oryza sativa (ORYSA); 1.25 g/ha): 0% | Post-emergence action against ORYSA (crop plant compatibility) (Oryza sativa (ORYSA); 5 g/ha): 20% | pest or weed control at 5 g/ha ([2]; Echinochloa crus-galli, 504 h, dosage 5 g/ha, read-out: Post-emergence action against ECHCG in %): 100% | pest or weed control at 20 g/ha ([2]; Echinochloa crus-galli, 504 h, dosage 20 g/ha, read-out: Post-emergence action against ECHCG in %): 100% | pest or weed control at 20 g/ha (Setaria viridis (SETVI); Setaria viridis, 504 h, 20 g/ha, read-out: Post-emergence action against SETVI): 100% | pest or weed control at 1.25 g/ha (Setaria viridis (SETVI); Setaria viridis, 504 h, dosage 1.25 g/ha, read-out: Post-emergence action against SETVI in %): 100% | pest or weed control at 5 g/ha (Setaria viridis (SETVI); Setaria viridis, 504 h, dosage 5 g/ha, read-out: Post-emergence action against SETVI in %): 100% | pest or weed control at 5 g/ha ([3]; Alopecurus myosuroides, 504 h, 5 g/ha, read-out: Post-emergence action at 5 g/ha against ALOMY in %): 80% | pest or weed control at 20 g/ha ([3]; Alopecurus myosuroides, 504 h, 20 g/ha, read-out: Post-emergence action at 20 g/ha against ALOMY in %): 80% | pest or weed control at 1.25 g/ha ([4]; Tripleurospermum inodorum, 504 h, dosage 1.25 g/ha, read-out: Post-emergence action against MATIN in %): 80% | pest or weed control at 5 g/ha ([4]; Tripleurospermum inodorum, 504 h, dosage 5 g/ha, read-out: Post-emergence action against MATIN in %): 80% | pest or weed control at 20 g/ha ([4]; Tripleurospermum inodorum, 504 h, dosage 20 g/ha, read-out: Post-emergence action against MATIN in %): 100% | pest or weed control at 1.25 g/ha (Viola tricolor (VIOTR); Viola tricolor, 504 h, 1.25 g/ha, read-out: Post-emergence action against VIOTR): 80% | pest or weed control at 5 g/ha (Viola tricolor (VIOTR); Viola tricolor, 504 h, 5 g/ha, read-out: Post-emergence action against VIOTR): 100% | pest or weed control at 20 g/ha (Viola tricolor (VIOTR); Viola tricolor, 504 h, 20 g/ha, read-out: Post-emergence action against VIOTR): 100% | pest or weed control at 1.25 g/ha (Veronica persica (VERPE); Veronica persica, 504 h, 1.25 g/ha, read-out: Post-emergence action against VERPE): 100% | pest or weed control at 5 g/ha (Veronica persica (VERPE); Veronica persica, 504 h, 5 g/ha, read-out: Post-emergence action against VERPE): 100% | pest or weed control at 20 g/ha (Veronica persica (VERPE); Veronica persica, 504 h, 20 g/ha, read-out: Post-emergence action against VERPE): 100% | pest or weed control at 20 g/ha (Avena fatua (AVEFA); Avena fatua, 504 h, read-out: Post-emergence action at 20 g/ha against AVEFA in %): 80% | pest or weed control at 1.25 g/ha ([5]; Ipomoea purpurea, 504 h, dosage 1.25 g/ha, read-out: Post-emergence action against PHBPU in %): 100% | pest or weed control at 5 g/ha ([5]; Ipomoea purpurea, 504 h, dosage 5 g/ha, read-out: Post-emergence action against PHBPU in %): 100% | pest or weed control at 20 g/ha ([5]; Ipomoea purpurea, 504 h, dosage 20 g/ha, read-out: Post-emergence action against PHBPU in %): 100% | pest or weed control at 1.25 g/ha ([6]; Amaranthus retroflexus, 504 h, 1.25 g/ha, read-out: Post-emergence action at 1.25 g/ha against AMARE in %): 100% | pest or weed control at 5 g/ha ([6]; Amaranthus retroflexus, 504 h, 5 g/ha, read-out: Post-emergence action at 5 g/ha against AMARE in %): 100% | pest or weed control at 20 g/ha ([6]; Amaranthus retroflexus, 504 h, 20 g/ha, read-out: Post-emergence action at 20 g/ha against AMARE in %): 100% | pest or weed control at 1.25 g/ha ([7]; Abutilon theophrasti, 504 h, 1.25 g/ha, read-out: Post-emergence action at 1.25 g/ha against ABUTH in %): 100% | pest or weed control at 5 g/ha ([7]; Abutilon theophrasti, 504 h, 5 g/ha, read-out: Post-emergence action at 5 g/ha against ABUTH in %): 100% | pest or weed control at 20 g/ha ([7]; Abutilon theophrasti, 504 h, 20 g/ha, read-out: Post-emergence action at 20 g/ha against ABUTH in %): 100% | pest or weed control at 20 g/ha ([8]; Fallopia convolvulus, 504 h, dosage 20 g/ha, read-out: Post-emergence action against POLCO in %): 100%

Cn1c(C(F)(F)F)cc(=O)n(-c2cc(Oc3ccccc3OCC(=O)OCCOC(F)(F)F)c(Br)cc2F)c1=O [I.8-41]
Post-emergence action against TRZAS (crop plant compatibility) ([1]; 1.25 g/ha): 0% | Post-emergence action against TRZAS (crop plant compatibility) ([1]; 5 g/ha): 20% | Post-emergence action against ZEAMX (crop plant compatibility) (Zea mays (ZEAMX)): 20% | Post-emergence action against ORYSA (crop plant compatibility) (Oryza sativa (ORYSA); 1.25 g/ha): 0% | Post-emergence action against ORYSA (crop plant compatibility) (Oryza sativa (ORYSA); 5 g/ha): 20% | Post-emergence action against ECHCG in % ([2]; dosage 5 g/ha): 90% | Post-emergence action against ECHCG in % ([2]; dosage 20 g/ha): 100% | Post-emergence action against SETVI (Setaria viridis (SETVI); 20 g/ha): 100% | Post-emergence action against SETVI in % (Setaria viridis (SETVI); dosage 1.25 g/ha): 100% | Post-emergence action against SETVI in % (Setaria viridis (SETVI); dosage 5 g/ha): 100% | Post-emergence action at 5 g/ha against ALOMY in % ([3]; 5 g/ha): 80% | Post-emergence action at 20 g/ha against ALOMY in % ([3]; 20 g/ha): 100% | Post-emergence action against MATIN in % ([4]; dosage 1.25 g/ha): 90% | Post-emergence action against MATIN in % ([4]; dosage 5 g/ha): 90% | Post-emergence action against MATIN in % ([4]; dosage 20 g/ha): 100% | Post-emergence action against VIOTR (Viola tricolor (VIOTR); 1.25 g/ha): 100% | Post-emergence action against VIOTR (Viola tricolor (VIOTR); 5 g/ha): 100% | Post-emergence action against VIOTR (Viola tricolor (VIOTR); 20 g/ha): 100% | Post-emergence action against VERPE (Veronica persica (VERPE); 5 g/ha): 100% | Post-emergence action against VERPE (Veronica persica (VERPE); 20 g/ha): 100% | Post-emergence action at 20 g/ha against AVEFA in % (Avena fatua (AVEFA)): 80% | Post-emergence action against PHBPU in % ([5]; dosage 1.25 g/ha): 100% | Post-emergence action against PHBPU in % ([5]; dosage 5 g/ha): 100% | Post-emergence action against PHBPU in % ([5]; dosage 20 g/ha): 100% | Post-emergence action at 1.25 g/ha against AMARE in % ([6]; 1.25 g/ha): 100% | Post-emergence action at 5 g/ha against AMARE in % ([6]; 5 g/ha): 100% | Post-emergence action at 20 g/ha against AMARE in % ([6]; 20 g/ha): 100% | Post-emergence action at 1.25 g/ha against ABUTH in % ([7]; 1.25 g/ha): 80% | Post-emergence action at 5 g/ha against ABUTH in % ([7]; 5 g/ha): 100% | Post-emergence action at 20 g/ha against ABUTH in % ([7]; 20 g/ha): 100% | Post-emergence action against POLCO in % ([8]; dosage 1.25 g/ha): 80% | Post-emergence action against POLCO in % ([8]; dosage 5 g/ha): 90% | Post-emergence action against POLCO in % ([8]; dosage 20 g/ha): 100%
